We go through 6 molecules from PMC5546122, “Effects of Fungicides on Rat's Neurosteroid Synthetic Enzymes” (BioMed Research International, 2017).

In data set [1] the target is T1, RDH2 (retinol dehydrogenase 2) (Rattus norvegicus, UniProt P50170).
T1 construct: gene Rdh16; full-length cDNA in pcDNA1.1, transient expression in COS-1 cells, microsomal fraction
T1 sequence (P50170 1-317): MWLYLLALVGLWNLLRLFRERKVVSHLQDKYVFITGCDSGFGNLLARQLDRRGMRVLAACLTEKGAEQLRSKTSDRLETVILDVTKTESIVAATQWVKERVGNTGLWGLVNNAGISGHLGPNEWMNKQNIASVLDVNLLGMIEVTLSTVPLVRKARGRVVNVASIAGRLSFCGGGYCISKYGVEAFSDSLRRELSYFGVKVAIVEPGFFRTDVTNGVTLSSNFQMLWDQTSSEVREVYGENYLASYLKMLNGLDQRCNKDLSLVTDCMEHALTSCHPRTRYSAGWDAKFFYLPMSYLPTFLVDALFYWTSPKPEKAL
Kind of data set: radiometric TLC enzyme assay, transfected COS-1 microsomes. To be noted: read-out: % of control activity at 100 μM. The class given is biochemical.

Data set [2] addresses T2, 3α-HSD (3α-hydroxysteroid dehydrogenase; AKR1C14) (Rattus norvegicus, UniProt P23457).
T2 construct: gene Akr1c9; Akr1c14 in pRc/CMV, transient expression in COS-1 cells, cytosolic fraction
T2 sequence (P23457 1-322): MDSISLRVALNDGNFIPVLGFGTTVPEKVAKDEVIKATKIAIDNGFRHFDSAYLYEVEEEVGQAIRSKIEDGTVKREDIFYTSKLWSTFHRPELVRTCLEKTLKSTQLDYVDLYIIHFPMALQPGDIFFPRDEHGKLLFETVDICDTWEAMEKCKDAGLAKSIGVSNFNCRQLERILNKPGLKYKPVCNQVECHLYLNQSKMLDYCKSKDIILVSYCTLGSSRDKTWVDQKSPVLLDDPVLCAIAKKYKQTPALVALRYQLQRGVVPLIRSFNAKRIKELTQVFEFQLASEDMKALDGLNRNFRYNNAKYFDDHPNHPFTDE
The data set can be described thus: radiometric TLC enzyme assay, transfected COS-1 cytosol. The data set is classed as biochemical. An excerpt: radiometric TLC enzyme assay, transfected COS-1 cytosol on 3α-HSD (3α-hydroxysteroid dehydrogenase; AKR1C14)

For data set [3], the target named is T3, 5α-Red1 (5α-reductase 1; SRD5A1) (Rattus norvegicus, UniProt P24008).
T3 construct: Srd5a1 in pcDNA1.1, transient expression in COS-1 cells, microsomal fraction
T3 sequence (P24008 1-259): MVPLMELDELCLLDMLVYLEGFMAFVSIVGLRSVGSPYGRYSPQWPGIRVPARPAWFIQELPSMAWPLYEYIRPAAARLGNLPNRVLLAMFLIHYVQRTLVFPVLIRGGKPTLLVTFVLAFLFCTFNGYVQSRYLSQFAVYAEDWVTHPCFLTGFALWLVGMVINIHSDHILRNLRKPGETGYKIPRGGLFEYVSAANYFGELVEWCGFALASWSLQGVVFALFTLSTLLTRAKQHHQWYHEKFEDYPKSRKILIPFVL
The data set can be described thus: radiometric TLC enzyme assay, transfected COS-1 microsomes. The class given is biochemical. To be noted: read-out: % of control activity at 100 μM.

The target in data set [4] is T3, 5α-Red1 (5α-reductase 1; SRD5A1). Described as above. The data set is classed as biochemical. An excerpt:
radiometric TLC enzyme assay, transfected COS-1 microsomes on 5α-Red1 (5α-reductase 1; SRD5A1)

Data set [5] deals with T1, RDH2 (retinol dehydrogenase 2). The description is as above. The data set is classed as biochemical. An excerpt: radiometric TLC enzyme assay, transfected COS-1 microsomes on RDH2 (retinol dehydrogenase 2)
Substrate in data set [6]: C[C@]12CC[C@H]3[C@@H](CCC4=CC(=O)CC[C@@]43C)[C@@H]1CC[C@@H]2O
The data set can be described thus: cells, lysate or membranes. The following applies: 0.2 mM NADPH, 0.0315–10 µM testosterone, PBS pH 7.2, radiolabelled tracer.

Substrate in data set [7]: C[C@]12CCC(=O)C[C@@H]1CC[C@@H]1[C@@H]2CC[C@]2(C)[C@@H](O)CC[C@@H]12
Kind of data set: cells, lysate or membranes. To be noted: 0.2 mM NADPH, 0.0315–10 µM dihydrotestosterone, PBS pH 7.2, radiolabelled tracer.

Substrate in data set [8]: C[C@]12CC[C@@H](O)C[C@@H]1CC[C@@H]1[C@@H]2CC[C@]2(C)[C@@H](O)CC[C@@H]12
Kind of data set: cells, lysate or membranes. To be noted: 0.2 mM NAD+, 0.0315–10 µM DIOL, PBS pH 7.2, radiolabelled tracer.

Where two headings read alike, the source gives them in different places.

Consider `C=CC1(C)OC(=O)N(c2cc(Cl)cc(Cl)c2)C1=O` (stereo not drawn) [vinclozolin], for which the remaining activity at 100 µM in data set [1] turned out to be 85.5 ± 2.2%; in data set [3], 74.2 ± 5.57%. Besides, in data set [2], the IC50 is ~100 µM.

`CC(C)(C)C(O)(CCc1ccc(Cl)cc1)Cn1cncn1` (stereo not drawn) [tebuconazole]: the IC50 in data set [4] was 8.67 ± 0.771 µM; in data set [2], ~100 µM; in data set [5] (read-out: 3α-HSD) it was > 100 µM.

With `CC(C)(C)C(=O)C(Oc1ccc(Cl)cc1)n1cncn1` (stereo not drawn) [triadimefon], the IC50 is 17.39 ± 0.079 µM in data set [4], 26.49 ± 0.076 µM in data set [2] and > 100 µM in data set [5] (read-out: RDH2).

B1: 5α-Red1 (5α-reductase 1; SRD5A1) (Rattus norvegicus) (protein)
chain: T3 sequence (P24008 1-259)
On to B1, for which, in data set [6], the Km – broadly, the concentration of substrate that gives half-maximal velocity – is recorded as 1.397 ± 0.35 µM and the Vmax – broadly, the rate approached at saturating substrate – amounted to 3.49e-06 µmol/min/mg.

B2: 3α-HSD (3α-hydroxysteroid dehydrogenase; AKR1C14) (Rattus norvegicus) (protein)
chain: T2 sequence (P23457 1-322)
B2: in data set [7], the Km was 3.148 ± 0.197 µM and the Vmax was found to be 6.67e-05 µmol/min/mg.

B3: RDH2 (retinol dehydrogenase 2) (Rattus norvegicus) (protein)
chain: T1 sequence (P50170 1-317)
With B3, in data set [8], the Km was found to be 2.850 ± 0.037 µM and the Vmax worked out at 0.00053 µmol/min/mg.
